Results reported in ChEMBL document CHEMBL1800066 (J Med Chem, 2011).
Calls of active or inactive are those of the source. The rule behind the calls is not given here.

Columns and labels:
[1] = biological target: Receptor-type tyrosine-protein kinase FLT3 (Homo sapiens, UniProt P36888); test: Inhibition of human Flt3
[2] = Half life in rat at 2 mg/kg, iv and 5 mg/kg, po; assay type: ADME, organism-based; conditions: in vivo
[3] = biological target: T1, Hepatocyte growth factor receptor (Homo sapiens, UniProt P08581); test: Inhibition of c-MET overexpressed in human GTL-16 cells assessed as phosphorylation at C-terminal Y1235 after 2 hrs by Western blot analysis; assay type: cell-based
[4] = biological target: Fibroblast growth factor receptor 3 (Homo sapiens, UniProt P22607); test: Inhibition of human FGFR3
[5] = test system: Mus musculus; test: Toxicity in human GTL16 cells xenografted CD1 nu/nu mouse assessed as change in median body weight at 200 mg/kg, po QD; assay type: organism-based; set-up: dose 200 mg/kg, route oral; conditions: in vivo
[6] = biological target: Tyrosine-protein kinase Mer (Homo sapiens, UniProt Q12866); test: Inhibition of human Mer
[7] = biological target: Tyrosine-protein kinase ABL1 (Homo sapiens, UniProt P00519); test: Inhibition of human Abl
[8] = Tmax in mouse at 2 mg/kg, po; assay type: ADME, organism-based; set-up: dose 2 mg/kg, route oral; conditions: in vivo
[9] = Plasma clearance in dog at 1 mg/kg, iv; assay type: ADME, organism-based, Canis lupus familiaris; set-up: dose 1 mg/kg, route intravenous
[10] = biological target: Vascular endothelial growth factor receptor 3 (Homo sapiens, UniProt P35916); test: Inhibition of human Flt4
[11] = Cmax in rat at 5 mg/kg, po; assay type: ADME, organism-based; set-up: dose 5 mg/kg, route oral; conditions: in vivo
[12] = Tmax in monkey at 0.5 mg/kg, po; assay type: ADME, organism-based, Macaca mulatta; set-up: dose 0.5 mg/kg, route oral; conditions: rhesus monkey, in vivo
[13] = biological target: Fibroblast growth factor receptor 2 (Homo sapiens, UniProt P21802); test: Inhibition of human FGFR2
[14] = Tmax in dog at 2 mg/kg, po; assay type: ADME, organism-based, Canis lupus familiaris; set-up: dose 2 mg/kg, route oral; conditions: in vivo
[15] = biological target: Hepatocyte growth factor receptor (Homo sapiens, UniProt P08581, Y1230C)
[16] = biological target: Vascular endothelial growth factor receptor 1 (Homo sapiens, UniProt P17948); test: Inhibition of human Flt1
[17] = Volume of distribution at steady state in monkey at 0.25 mg/kg, iv; assay type: ADME, organism-based, Macaca mulatta; set-up: dose 0.25 mg/kg, route intravenous; conditions: rhesus monkey, in vivo, read-out: Vdss
[18] = Volume of distribution at steady state in mouse at 1 mg/kg, iv; assay type: ADME, organism-based; set-up: dose 1 mg/kg, route intravenous; conditions: in vivo, read-out: Vdss
[19] = Plasma clearance in rat at 2 mg/kg, iv and 5 mg/kg, po; assay type: ADME, organism-based
[20] = test system: Mus musculus; test: Inhibition of c-Met phosphorylation at Y1365 in human GTL16 cells xenografted in CD1 nu/nu mouse at 10 to 100 mg/kg, po BID measured after 4 hrs by immunostaining assay; assay type: functional, organism-based
[21] = biological target: T1, Hepatocyte growth factor receptor; test: Binding affinity to human recombinant His6-tagged phosphorylated c-Met cytosolic domain
[22] = biological target: T1, Hepatocyte growth factor receptor; test: Inhibition of recombinant human c-MET phosphorylation at C-terminal Y1349
[23] = Plasma clearance in monkey at 0.25 mg/kg, iv; assay type: ADME, organism-based, Macaca mulatta; set-up: dose 0.25 mg/kg, route intravenous; conditions: rhesus monkey
[24] = Antiproliferative activity against human GTL16 cells after 72 hrs; conditions: GTL 16, 72 h
[25] = biological target: Tyrosine-protein kinase JAK2 (Homo sapiens, UniProt O60674); test: Inhibition of human JAK2
[26] = biological target: T1, Hepatocyte growth factor receptor; test: Inhibition of recombinant human c-MET phosphorylation at C-terminal Y1235
[27] = Oral bioavailability in mouse at 2 mg/kg; assay type: ADME, organism-based; conditions: in vivo
[28] = biological target: T1, Hepatocyte growth factor receptor; test: Inhibition of c-MET overexpressed in human GTL-16 cells assessed as phosphorylation at C-terminal Y1349 after 2 hrs by Western blot analysis; assay type: cell-based
[29] = Oral bioavailability in monkey at 0.5 mg/kg; assay type: ADME, organism-based, Macaca mulatta; conditions: rhesus monkey, in vivo
[30] = test system: Canis familiaris; test: Oral bioavailability in dog at 2 mg/kg; assay type: ADME, organism-based, Canis lupus familiaris; conditions: in vivo
[31] = test system: Mus musculus; test: Inhibition of Akt phosphorylation at S473 in human GTL16 cells xenografted in CD1 nu/nu mouse at 10 to 100 mg/kg, po BID measured after 4 hrs by immunostaining assay; assay type: functional, organism-based
[32] = AUC (0 to infinity) in mouse at 2 mg/kg, po; assay type: ADME, organism-based; set-up: time infinity, dose 2 mg/kg, route oral; conditions: plasma
[33] = test system: GTL 16; test: Antitumor activity against human GTL16 cells xenografted in CD1 nu/nu mouse assessed as suppression of tumor growth at 200 mg/kg, po QD; assay type: functional, organism-based; set-up: dose 200 mg/kg
[34] = Oral bioavailability in rat at 5 mg/kg; assay type: ADME, organism-based; conditions: in vivo
[35] = Cmax in monkey at 0.5 mg/kg, po; assay type: ADME, organism-based, Macaca mulatta; set-up: dose 0.5 mg/kg, route oral; conditions: rhesus monkey, in vivo
[36] = test system: Mus musculus; test: Toxicity in human GTL16 cells xenografted CD1 nu/nu mouse assessed as mortality at 10 to 100 mg/kg, po BID; assay type: organism-based; set-up: dose 10-100 mg/kg, route oral; conditions: in vivo
[37] = biological target: Vascular endothelial growth factor receptor 2 (Homo sapiens, UniProt P35968); test: Inhibition of human KDR
[38] = Half life in dog at 1 mg/kg, iv; assay type: ADME, organism-based, Canis lupus familiaris; set-up: dose 1 mg/kg, route intravenous; conditions: in vivo
[39] = Cmax in dog at 2 mg/kg, po; assay type: ADME, organism-based, Canis lupus familiaris; set-up: dose 2 mg/kg, route oral; conditions: in vivo
[40] = test system: Mus musculus; test: Inhibition of c-Met phosphorylation at Y1349 in human GTL16 cells xenografted in CD1 nu/nu mouse at 10 to 100 mg/kg, po BID measured after 4 hrs by immunostaining assay; assay type: functional, organism-based
[41] = biological target: Hepatocyte growth factor receptor (Homo sapiens, UniProt P08581, N1100Y)
[42] = Half life in monkey at 0.25 mg/kg, iv; assay type: ADME, organism-based, Macaca mulatta; set-up: dose 0.25 mg/kg, route intravenous; conditions: rhesus monkey, in vivo
[43] = Inhibition of potassium channel IKr
[44] = test system: Mus musculus; test: Toxicity in human GTL16 cells xenografted CD1 nu/nu mouse assessed as mortality at 10 to 200 mg/kg, po qd; assay type: organism-based; set-up: dose 10-200 mg/kg, route oral; conditions: in vivo
[45] = test system: Mus musculus; test: Toxicity in human GTL16 cells xenografted CD1 nu/nu mouse assessed as change in median body weight at 10 to 100 mg/kg, po BID; assay type: organism-based; set-up: dose 10-100 mg/kg, route oral; conditions: in vivo
[46] = AUC (0 to infinity) in mouse at 1 mg/kg, iv; assay type: ADME, organism-based; set-up: time infinity, dose 1 mg/kg, route intravenous; conditions: plasma
[47] = Volume of distribution at steady state in rat at 2 mg/kg, iv and 5 mg/kg, po; assay type: ADME, organism-based; conditions: in vivo, read-out: Vdss
[48] = biological target: Cytochrome P450 2D6 (Homo sapiens, UniProt P10635); test: Inhibition of CYP2D6; assay type: ADME
[49] = biological target: Macrophage-stimulating protein receptor (Homo sapiens, UniProt Q04912); test: Inhibition of human Ron
[50] = biological target: T1, Hepatocyte growth factor receptor; test: Inhibition of recombinant human c-MET phosphorylation at C-terminal Y1230
[51] = biological target: Hepatocyte growth factor receptor (Homo sapiens, UniProt P08581, M1250T)
[52] = AUC (0 to infinity) in monkey at 0.5 mg/kg, po; assay type: ADME, organism-based, Macaca mulatta; set-up: time infinity, dose 0.5 mg/kg, route oral; conditions: rhesus monkey, plasma
[53] = Volume of distribution at steady state in dog at 1 mg/kg, iv; assay type: ADME, organism-based, Canis lupus familiaris; set-up: dose 1 mg/kg, route intravenous; conditions: in vivo, read-out: Vdss
[54] = biological target: Hepatocyte growth factor receptor (Homo sapiens, UniProt P08581, Y1235D)
[55] = biological target: High affinity nerve growth factor receptor (Homo sapiens, UniProt P04629); test: Inhibition of human TrkA
[56] = Half life in mouse at 1 mg/kg, iv; assay type: ADME, organism-based; set-up: dose 1 mg/kg, route intravenous; conditions: in vivo
[57] = biological target: T1, Hepatocyte growth factor receptor; test: Inhibition of recombinant human c-MET phosphorylation at C-terminal Y1234
[58] = Tmax in rat at 5 mg/kg, po; assay type: ADME, organism-based; set-up: dose 5 mg/kg, route oral; conditions: in vivo

CN(C[C@@H]1COCCO1)S(=O)(=O)Nc1ccc2ccc3ncc(-c4cnn(C)c4)cc3c(=O)c2c1 [MK-2461]
IC50 [1]: 22 nM | half-life [2]: 48 min | IC50 [3]: > 2500 nM | IC50 [4]: 50 nM | Activity [5]: Non-toxic | IC50 [6]: 24 nM | IC50 [7]: 7800 nM | Tmax [8]: 18 min | clearance [9]: 4.3 mL/min/kg | IC50 [10]: 78 nM | Cmax [11]: 4200 nM | Tmax [12]: 180 min | IC50 [13]: 39 nM | Tmax [14]: 84 min | IC50 [15]: 1.5 nM | IC50 [16]: 10 nM | Vd [17]: 0.5 L/kg | Vd [18]: 3.2 L/kg | clearance [19]: 9.1 mL/min/kg | inhibition [20]: Active | Kd [21]: 4 nM | IC50 [22]: 100 nM | clearance [23]: 8.4 mL/min/kg | IC50 [24]: 440 nM | IC50 [25]: 230 nM | IC50 [26]: 900 nM | bioavailability [27]: 75% | IC50 [28]: 56 nM | bioavailability [29]: 14% | F [30]: 13% | inhibition [31]: Active | AUC(0-inf) [32]: 0.6 µM·h | Activity [33]: Active | bioavailability [34]: 62% | Cmax [35]: 120 nM | Activity [36]: Non-toxic | IC50 [37]: 44 nM | half-life [38]: 174 min | Cmax [39]: 2500 nM | inhibition [40]: Active | IC50 [41]: 1.5 nM | half-life [42]: 48 min | IC50 [43]: > 30000 nM | Activity [44]: Non-toxic | Activity [45]: Non-toxic | AUC(0-inf) [46]: 0.4 µM·h | Vd [47]: 0.4 L/kg | IC50 [48]: > 100000 nM | IC50 [49]: 7 nM | IC50 [50]: 900 nM | IC50 [51]: 0.4 nM | AUC(0-inf) [52]: 0.4 µM·h | Vd [53]: 1.1 L/kg | IC50 [54]: 0.5 nM | IC50 [55]: 46 nM | half-life [56]: 30 min | IC50 [57]: 900 nM | Tmax [58]: 42 min
